{"source": "patent US20250049812A1", "about": "“Compounds that Inhibit Necroptosis and Their Preparation Methods” (SHANGHAI INSTITUTE OF ORGANIC CHEMISTRY, CHINESE ACADEMY OF …, priority 2021, published 2025)"}
{"tested_on": "Jurkat FADD (−/−) Cells", "assay": "TNF-α induced necroptosis of Jurkat FADD-deficient cells (CellTiter-Glo cell survival)", "format": "cell-based, human", "details": "Homo sapiens; TNF-α induced necroptosis, Jurkat FADD-deficient cells, 13 hours, CellTiter-Glo; read-out: IC50", "experimental": "1. Cell Activity Testing System (TNF-α Induces the Necroptosis of Jurkat Cells, the Human Leukemia Cells Deficient in FADD).\n(1) Cell culture: Jurkat FADD-deficient cells were cultured in an RPMI 1640 medium with 10% fetal bovine serum (FBS), 100 U/mL penicillin, and 100 […]. The cells were cultured in a cell culture incubator at 37° C. with 5% CO2. And all the cells were cryopreserved in a complete medium containing 5-10% DMSO. Medium change and passage were performed 3-4 times per week.\n(4) Experimental scheme: The system of TNF-α inducing the necroptosis of Jurkat FADD-deficient cells was used to screen for compounds with RIPKl kinase inhibitory activity.\nJurkat FADD-deficient cells were evenly inoculated into a 384-well plate with each well added with a 40 μL complete culture medium, followed by the addition of 5 μL of the under-testing compound to each well. The initial concentration of the compounds was set at 25 μM (for some compounds with higher activity, the initial concentration was set at 0.5 μM), with a three-fold gradient dilution, totaling 12 gradient points. Three replicate wells were set for each compound. In addition, there was a blank control group and a control group with TNFα stimulation only. After the compound was added, the mixture needed to be centrifuged and incubated in a cell culture incubator at 37° C. containing 5% CO2 for 1 hour. After that, 5 μL of 5 ng/mL TNFα was added to stimulate the occurrence of necroptosis. After centrifugation and mixing, the mixture was placed in the cell culture incubator for 13 hours (until the cell death rate reaches 65% in the group with only TNF-α), with a total volume of 50 μL per well. Then, the steps below were followed to test the cell survival rate.\nThe CellTiter-Glo® Buffer was removed from the reagent kit, equilibrated to room temperature, and used to dissolve the CellTiter-Glo® Substrate. The CellTiter-Glo® Reagent obtained could be directly used for the experiment.\n15 μL of CellTiter-Glo® Reagent which has been equilibrated to room temperature was added to each well, and incubated in the dark for 15 minutes. After that, a microplate reader (Enspire Multimode Plate Reader of PerkinElmer, USA) was used to measure the chemiluminescence.", "units": {"IC50": "nM"}}
{"smiles": "CN1C(=O)C(NC(=O)c2nnc(Cc3ccccc3)[nH]2)Cc2cn(-c3ncccc3CF)c3cccc1c23", "note": "(racemic) [T-54, (±)-5-benzyl-N-(6-(3-(fluoromethyl)pyridin-2-yl)-1-methyl-2-oxo-2,3,4,6-tetrahydro-1H-azacyclo [4,3,2-cd]indol-3-yl)-4H-1,2,4-triazole-3-carboxamide]", "IC50": "< 10"}
{"smiles": "CN1C(=O)C(NC(=O)c2nnc(Cc3ccccc3)[nH]2)Cc2cn(-c3ncccc3C(C)(C)O)c3cccc1c23", "note": "(racemic) [T-55, (±)-5-benzyl-N-(6-(3-(2-hydroxypropan-2-yl)pyridin-2-yl)-1-methyl-2-oxy-2,3,4,6-tetrahydro-1H-azacyclo [4,3,2-cd]indol-3-yl)-4H-1,2,4-triazole-3-carboxamide]", "IC50": "10 to 100"}
{"smiles": "CNC(=O)c1cccnc1-n1cc2c3c(cccc31)N(C)C(=O)C(NC(=O)c1nnc(Cc3ccccc3)[nH]1)C2", "note": "(racemic) [T-56, (±)-2-(3-(5-benzyl-4H-1,2,4-triazole-3-carboxamide)-1-methyl-2-oxy-1,2,3,4-tetrahydro-6H-azacyclo [4,3,2-cd]indol-6-yl)-N-methylnicotinamide]", "IC50": "10 to 100"}
{"smiles": "CN(C)C(=O)c1cccnc1-n1cc2c3c(cccc31)N(C)C(=O)C(NC(=O)c1nnc(Cc3ccccc3)[nH]1)C2", "note": "(racemic) [T-57, (±)-2-(3-(5-benzyl-4H-1,2,4-triazole-3-carboxamide)-1-methyl-2-oxy-1,2,3,4-tetrahydro-6H-azacyclo [4,3,2-cd]indol-6-yl)-N,N-dimethylnicotinamide]", "IC50": "100 to 1000"}
{"smiles": "CC(O)c1cccnc1-n1cc2c3c(cccc31)N(C)C(=O)C(NC(=O)c1nnc(Cc3ccccc3)[nH]1)C2", "note": "(racemic) [T-58, (±)-5-benzyl-N-(6-(3-(1-hydroxyethyl)pyridin-2-yl)-1-methyl-2-oxo-2,3,4,6-tetrahydro-1H-azacyclo [4,3,2-cd]indol-3-yl)-4H-1,2,4-triazole-3-carboxamide]", "IC50": "10 to 100"}
{"smiles": "CC(=O)c1cccnc1-n1cc2c3c(cccc31)N(C)C(=O)C(NC(=O)c1nnc(Cc3ccccc3)[nH]1)C2", "note": "(racemic) [T-59, (±)-N-(6-(3-acetylpyridin-2-yl)-1-methyl-2-oxo-2,3,4,6-tetrahydro-1H-azacyclo [4,3,2-cd]indol-3-yl)-5-benzyl-4H-1,2,4-triazole-3-carboxamide]", "IC50": "< 10"}
{"smiles": "CN1C(=O)C(N2CCc3c(nn(Cc4ccccc4)c3Cl)C2=O)Cc2cn(-c3ncccc3C(F)(F)F)c3cccc1c23", "note": "(racemic) [T-60, (±)-3-(2-benzyl-3-chloro-7-oxo-2,4,5,7-tetrahydro-6H-pyrazole [3,4-c]pyridin-6-yl)-1-methyl-6(3-(trifluoromethyl)pyridin-2-yl)-1,3,4,6-tetrahydro-2H-azepine [4,3,2-cd] indole-2-one]", "IC50": "< 10"}
{"smiles": "CN1C(=O)C(NC(=O)c2nnc(Cc3ccccc3)[nH]2)Cc2cn(-c3ncccc3C(N)=O)c3cccc1c23", "note": "(racemic) [T-61, (±)-2-(3-(5-benzyl-4H-1,2,4-triazole-3-carboxamide)-1-methyl-2-oxy-1,2,3,4-tetrahydro-6H-azacyclo [4,3,2-cd]indol-6-yl)nicotinamide]", "IC50": "10 to 100"}
{"smiles": "CN1C(=O)C(NC(=O)c2nnc(Cc3ccccc3)[nH]2)Cc2cn(-c3ncccc3Cl)c3cccc1c23", "note": "(racemic) [T-62, (±)-5-benzyl-N-(6-(3-chloropyridin-2-yl)-1-methyl-2-oxo-2,3,4,6-tetrahydro-1H-azacyclo [4,3,2-cd]indol-3-yl)-4H-1,2,4-triazole-3-carboxamide]", "IC50": "< 10"}
{"smiles": "CN1C(=O)C(NC(=O)c2ncc(Cc3ccccc3)o2)Cc2cn(-c3ncccc3C(F)(F)F)c3cccc1c23", "note": "(racemic) [T-63, (±)-5-benzyl-N-(1-methyl-2-oxo-6-(3-(trifluoromethyl)pyridin-2-yl)-2,3,4,6-tetrahydro-1H-azacyclo [4,3,2-cd]indol-3-yl) oxazole-2-carboxamide]", "IC50": "< 10"}
{"smiles": "COc1ccc(C)nc1-n1cc2c3c(cccc31)N(C)C(=O)C(NC(=O)c1nnc(Cc3ccccc3)[nH]1)C2", "note": "(racemic) [T-64, (±)-5-benzyl-N-(6-(3-methoxy-6-methylpyridin-2-yl)-1-methyl-2-oxo-2,3,4,6-tetrahydro-1H-azacyclo [4,3,2-cd]indol-3-yl)-4H-1,2,4-triazole-3-carboxamide]", "IC50": "< 10"}
{"smiles": "CC(C)c1cccnc1-n1cc2c3c(cccc31)N(C)C(=O)C(NC(=O)c1nnc(Cc3ccccc3)[nH]1)C2", "note": "(racemic) [T-65, (±)-5-benzyl-N-(6-(3-isopropylpyridin-2-yl)-1-methyl-2-oxo-2,3,4,6-tetrahydro-1H-azacyclo [4,3,2-cd]indol-3-yl)-4H-1,2,4-triazole-3-carboxamide]", "IC50": "10 to 100"}
{"smiles": "CN1C(=O)C(NC(=O)c2nnc(Cc3ccccc3)[nH]2)Cc2cn(-c3ncccc3C(=O)OC3CC3)c3cccc1c23", "note": "(racemic) [T-66, (±)-2-(3-(5-benzyl-4H-1,2,4-triazole-3-carboxamide)-1-methyl-2-oxo-1,2,3,4-tetrahydro-6H-azacyclo [4,3,2-cd]indol-6-yl)nicotinic Acid Cyclopropane]", "IC50": "< 10"}
{"smiles": "CCOc1cccnc1-n1cc2c3c(cccc31)N(C)C(=O)C(NC(=O)c1nnc(Cc3ccccc3)[nH]1)C2", "note": "(racemic) [T-67, (±)-5-benzyl-N-(6-(3-ethoxypyridin-2-yl)-1-methyl-2-oxy-2,3,4,6-tetrahydro-1H-azacyclo [4,3,2-cd]indol-3-yl)-4H-1,2,4-triazole-3-carboxamide]", "IC50": "< 10"}
{"smiles": "CN1C(=O)C(NC(=O)c2nnc(Cc3ccccc3)[nH]2)Cc2cn(-c3ncccc3S(C)(=O)=O)c3cccc1c23", "note": "(racemic) [T-68, (±)-5-benzyl-N-(1-methyl-6-(3-(methylsulfonyl)pyridin-2-yl)-2-oxo-2,3,4,6-tetrahydro-1H-azepine [4,3,2-cd]indol-3-yl)-4H-1,2,4-triazole-3-carboxamide]", "IC50": "< 10"}
{"smiles": "CN1C(=O)C(NC(=O)c2nnc(Cc3ccccc3)[nH]2)Cc2cn(-c3ccccn3)c3cccc1c23", "note": "(racemic) [T-69, (±)-5-benzyl-N-(1-methyl-2-oxo-6-(pyridin-2-yl)-2,3,4,6-tetrahydro-1H-azacyclo [4,3,2-cd]indol-3-yl)-4H-1,2,4-triazole-3-carboxamide]", "IC50": "10 to 100"}
{"smiles": "CN1C(=O)C(NC(=O)c2cc(Oc3ccccc3)ccn2)Cc2cn(-c3ncccc3C(F)(F)F)c3cccc1c23", "note": "(racemic) [T-70, (±)-N-(1-methyl-2-oxo-6-(3-(trifluoromethyl)pyridin-2-yl)-2,3,4,6-tetrahydro-1H-azacyclo[4,3,2-cd]indol-3-yl)-4-phenoxy Pyridinamide]", "IC50": "< 10"}
{"smiles": "CN1C(=O)C(NC(=O)c2nnc(Cc3ccccc3)[nH]2)Cc2cn(-c3ncn(C)n3)c3cccc1c23", "note": "(racemic) [T-73, (±)-5-benzyl-N-(1-methyl-6-(1-methyl-1H-1,2,4-triazole-3-yl)-2-oxo-2,3,4,6-tetrahydro-1H-azacyclo [4,3,2-cd]indol-3-yl)-4H-1,2,4-triazole-3-carboxamide]", "IC50": "10 to 100"}
{"smiles": "CN1C(=O)C(NC(=O)c2nnc(Cc3ccccc3)[nH]2)Cc2cn(-c3cncn3C)c3cccc1c23", "note": "(racemic) [T-74, (±)-5-benzyl-N-(1-methyl-6-(1-methyl-1H-imidazol-5-yl)-2-oxo-2,3,4,6-tetrahydro-1H-azacyclo [4,3,2-cd]indol-3-yl)-4H-1,2,4-triazole-3-carboxamide]", "IC50": "< 10"}
{"smiles": "CNS(=O)(=O)c1cccnc1-n1cc2c3c(cccc31)N(C)C(=O)C(NC(=O)c1nnc(Cc3ccccc3)[nH]1)C2", "note": "(racemic) [T-75, (±)-5-benzyl-N-(1-methyl-6-(3-(N-methylsulfamoyl)pyridin-2-yl)-2-oxo-2,3,4,6-tetrahydro-1H-azacyclo [4,3,2-cd]indol-3-yl)-4H-1,2,4-triazole-3-carboxamide]", "IC50": "10 to 100"}
{"smiles": "CN1C(=O)C(NC(=O)c2nnc(Cc3ccccc3)[nH]2)Cn2cc(C#N)c3cccc1c32", "note": "(racemic) [T-76, (±)-5-benzyl-N-(7-cyano-1-methyl-2-oxo-1,2,3,4-tetrahydro-[1,4]diazepino [3,2,1-hi]indol-3-yl)-4H-1,2,4-triazole-3-carboxamide]", "IC50": "10 to 100"}
{"smiles": "CN1C(=O)C(NC(=O)c2nnc(Cc3ccccc3)[nH]2)Cn2cc(-c3ccnc(C(F)(F)F)c3)c3cccc1c32", "note": "(racemic) [T-77, (±)-5-benzyl-N-(1-methyl-2-oxo-7-(2-(trifluoromethyl)pyridin-4-yl)-1,2,3,4-tetrahydro-[1,4]diazepino [3,2,1-hi]indol-3-yl)-4H-1,2,4-triazole-3-carboxamide]", "IC50": "100 to 1000"}
{"smiles": "CN1C(=O)C(NC(=O)c2nnc(Cc3ccccc3)[nH]2)Cn2cc(Br)c3ccc(Br)c1c32", "note": "(racemic) [T-79, (±)-5-benzyl-N-(7,10-dibromo-1-methyl-2-oxo-1,2,3,4-tetrahydro-[1,4]diazepino [3,2,1-hi]indol-3-yl)-4H-1,2,4-triazole-3-carboxamide]", "IC50": "> 1000"}
